Data from EPA's ToxRefDB 2.

Columns and labels:
mouse [1] = conditions: Carcinogenicity, cd1, Oral, Feed, dose end: 80 week, group: systemic
mouse [2] = conditions: Combined chronic toxicity/carcinogenicity; b6c3f1; Oral; Feed; dose end: 2 year; group: systemic; systemic / in life observation / body weight / body weight
rat [3] = conditions: Prenatal developmental toxicity study; wistar; Oral; Feed; dose end: 15 GD; group: maternal; systemic / in life observation / body weight / body weight gain + systemic / in life observation / food consumption / food consumption
rat [4] = conditions: Prenatal developmental toxicity study, sprague dawley, Oral, Gavage/Intubation, dose end: 15 GD
rat [5] = conditions: Multigenerational reproductive toxicity study, sprague dawley, Oral, Feed, dose end: 2 generation
rat [6] = conditions: Combined chronic toxicity/carcinogenicity; fischer; Oral; Feed; dose end: 104 week; group: systemic; systemic / organ weight / skeletal muscle / absolute + systemic / organ weight / skeletal muscle / relative to body weight + systemic / …
dog = conditions: Chronic toxicity, beagle, Oral, [Not Specified], dose end: 52 week, group: systemic
rat [7] = conditions: Subchronic oral toxicity in rodents, fischer, Feed, dose end: 13 week, group: systemic
rat [8] = conditions: Prenatal developmental toxicity study, sprague dawley, Oral, Gavage/Intubation, dose end: 5 GD, group: developmental
rat [9] = conditions: Prenatal developmental toxicity study, sprague dawley, Oral, Gavage/Intubation, dose end: 15 GD; remark: listed apart in the source
rat [10] = conditions: Combined chronic toxicity/carcinogenicity; sprague dawley; Oral; Feed; dose end: 104 week; group: systemic; systemic / pathology microscopic / adrenal gland / hypertrophy + systemic / pathology microscopic / skeletal muscle / malformation + …
mouse [11] = conditions: Subchronic oral toxicity in rodents, b6c3f1, Feed, dose end: 13 week, group: systemic
rat [12] = conditions: Subchronic oral toxicity in rodents, sprague dawley, Feed, dose end: 13 week, group: systemic, systemic / in life observation / body weight / body weight + systemic / in life observation / body weight / body weight gain + systemic / in…
rat [13] = conditions: Combined chronic toxicity/carcinogenicity, fischer, Oral, Feed, dose end: 2 year, group: systemic
[14] = systemic / in life observation / body weight / body weight + systemic / pathology microscopic / liver / hypertrophy
[15] = systemic / in life observation / body weight / body weight gain + systemic / organ weight / brain / absolute + systemic / pathology …
[16] = group: developmental, developmental / developmental malformation / bone / ossification sites + developmental / developmental malformation / general / [other] + …
[17] = group: maternal, systemic / in life observation / body weight / body weight gain
[18] = group: maternal, systemic / in life observation / body weight / body weight gain + reproductive / reproductive performance / postimplantation loss / …
[19] = group: offspring, systemic / in life observation / body weight / offspring (pup) weight
[20] = group: parental, systemic / in life observation / body weight / body weight + systemic / in life observation / body weight / body weight gain + systemic / in…
[21] = systemic / clinical chemistry / alanine aminotransferase (alt/sgpt) / alanine aminotransferase (alt/sgpt) + systemic / clinical chemistry / …
[22] = systemic / organ weight / ovary / absolute + systemic / organ weight / uterus / absolute
[23] = systemic / in life observation / body weight / body weight gain
[24] = systemic / in life observation / body weight / body weight gain + systemic / in life observation / mortality / mortality + systemic / in …
[25] = developmental / developmental malformation / bone / ossification sites + developmental / developmental malformation / general / [other] + …
[26] = group: developmental, developmental / developmental malformation / diaphragm / diaphragmatic thinning
[27] = group: developmental, developmental / developmental malformation / diaphragm / diaphragmatic thinning + systemic / in life observation / body weight / fetal …
[28] = group: maternal, systemic / in life observation / body weight / body weight + systemic / in life observation / clinical signs / salivation + systemic / in …
[29] = systemic / pathology microscopic / eye / retinopathy
[30] = systemic / pathology microscopic / thyroid gland / adenoma/carcinoma combined + systemic / pathology microscopic / thyroid gland / carcinoma…

CN(C)C(=S)[S-].CN(C)C(=S)[S-].[Zn+2] [Ziram] was tested, and the LEL (mouse [1]; [14]) was 3 mg/kg/day, the NEL (mouse [1]; [14]) was < 3 mg/kg/day and the LOAEL (mouse [1]; [15]) was 27 mg/kg/day. It also gave an NOAEL (mouse [1]; [15]) of 9 mg/kg/day, an LEL (mouse [2]) of 122 mg/kg/day and an LOAEL (mouse [2]) of 122 mg/kg/day. The NEL (mouse [2]) was < 122 mg/kg/day, the NOAEL (mouse [2]) was < 122 mg/kg/day and the LEL (rat [3]) was 12.5 mg/kg/day. For the same compound, the LOAEL (rat [3]) was > 25 mg/kg/day, the NEL (rat [3]) was 6.25 mg/kg/day and the NOAEL (rat [3]) was ≥ 25 mg/kg/day. The LOAEL (rat [4]; [16]) was > 100 mg/kg/day, the NEL (rat [4]; [16]) was 12.5 mg/kg/day and the NOAEL (rat [4]; [16]) was ≥ 100 mg/kg/day. For the same compound, the LEL (rat [4]; group: developmental, systemic / in life observation / body weight / fetal weight) was 25 mg/kg/day, the LEL (rat [4]; [17]) was 12.5 mg/kg/day and the NEL (rat [4]; [17]) was < 12.5 mg/kg/day. The LOAEL (rat [4]; [18]) was > 100 mg/kg/day, the NOAEL (rat [4]; [18]) was ≥ 100 mg/kg/day and the LEL (rat [5]; [19]) was 42.7 mg/kg/day. For the same compound, the LOAEL (rat [5]; [19]) was 42.7 mg/kg/day, the NEL (rat [5]; [19]) was 16.7 mg/kg/day and the NOAEL (rat [5]; [19]) was 16.7 mg/kg/day. The LEL (rat [5]; [20]) was 37.5 mg/kg/day, the LOAEL (rat [5]; [20]) was 37.5 mg/kg/day and the NEL (rat [5]; [20]) was 14.8 mg/kg/day. For the same compound, the NOAEL (rat [5]; [20]) was 14.8 mg/kg/day, the LEL (rat [6]) was 6.9 mg/kg/day and the LOAEL (rat [6]) was 6.9 mg/kg/day. For the same compound, the NEL (rat [6]) was 0.7 mg/kg/day, the NOAEL (rat [6]) was 0.7 mg/kg/day and the LOAEL (dog; [21]) was 6.6 mg/kg/day. For the same compound, the NOAEL (dog; [21]) was 1.6 mg/kg/day, the LEL (dog; [22]) was 1.9 mg/kg/day and the NEL (dog; [22]) was < 1.9 mg/kg/day. For the same compound, the LEL (rat [7]; [23]) was 31.3 mg/kg/day, the LOAEL (rat [7]; [24]) was > 313 mg/kg/day and the NEL (rat [7]; [24]) was 16.3 mg/kg/day. The NOAEL (rat [7]; [24]) was ≥ 313 mg/kg/day, the LOAEL (rat [8]; [25]) was > 100 mg/kg/day and the NEL (rat [8]; [25]) was 25 mg/kg/day. For the same compound, the NOAEL (rat [8]; [25]) was ≥ 100 mg/kg/day, the LEL (rat [8]; systemic / in life observation / body weight / fetal weight) was 50 mg/kg/day and the LEL (rat [9]; [26]) was 16 mg/kg/day. The LOAEL (rat [9]; [26]) was 16 mg/kg/day, the NEL (rat [9]; [27]) was 4 mg/kg/day and the NOAEL (rat [9]; [27]) was 4 mg/kg/day. For the same compound, the LEL (rat [9]; [28]) was 16 mg/kg/day, the LOAEL (rat [9]; [28]) was 16 mg/kg/day and the NEL (rat [9]; [28]) was 4 mg/kg/day. For the same compound, the NOAEL (rat [9]; [28]) was 4 mg/kg/day, the LEL (rat [10]) was 2.5 mg/kg/day and the LOAEL (rat [10]) was 2.5 mg/kg/day. The NEL (rat [10]) was < 2.5 mg/kg/day, the NOAEL (rat [10]) was < 2.5 mg/kg/day and the LEL (mouse [11]; [23]) was 80 mg/kg/day. The NEL (mouse [11]; [23]) was < 80 mg/kg/day, the LOAEL (mouse [11]; [24]) was > 1590 mg/kg/day and the NOAEL (mouse [11]; [24]) was ≥ 1590 mg/kg/day. The LEL (rat [12]) was 21.4 mg/kg/day, the LOAEL (rat [12]) was 21.4 mg/kg/day and the NEL (rat [12]) was 7.4 mg/kg/day. For the same compound, the NOAEL (rat [12]) was 7.4 mg/kg/day, the LEL (rat [13]; [29]) was 13 mg/kg/day and the NEL (rat [13]; [29]) was < 13 mg/kg/day. The LOAEL (rat [13]; [30]) was > 22 mg/kg/day and the NOAEL (rat [13]; [30]) was ≥ 22 mg/kg/day.
